Common to all, as to experiment: NCI-60 cell line screen, 48 h
Test [1] has as its system A498.
The test system of test [2] is ACHN.
Test [3] relates to CCRF-CEM.
The test system of test [4] is COLO 205.
Test [5] deals with HCT-15.
For test [6], the system named is K562.
The test system of test [7] is MDA-MB-231.
Test [8] relates to MDA-N.
The test system of test [9] is MOLT-4.
Test [10] concerns NCI-H226.
Test [11] has as its system NCI-H23.
Test [12] has as its system NCI/ADR-RES.
The test system of test [13] is OVCAR-5.
In test [14] the test system is SF-295.
For test [15], the system named is SK-MEL-2.
Test [16] concerns SK-OV-3.
Test [17] relates to SNB-19.
The subject of test [18] is TK-10.
In test [19] the test system is UACC-257.

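Cultured in 96-well plates, cells were exposed to test compound for 48 hours across five concentrations. GI50 = concentration required for 50% inhibition of growth.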 Activity calls are given as the source filed them. Rule as the data show it: active = GI50 up to about 1.1 µM and inactive = higher. Bounds are passed on as bounds.

Regarding `O=C(NCCNCCO)N/N=C/c1ccc(Cl)cc1`, the GI50 was > 100 µM (inactive) in test [1]; > 100 µM (inactive) in test [2]; > 100 µM (inactive) in test [3]; > 100 µM (inactive) in [4]; over 100 µM in test [5]; > 100 µM (inactive) in test [6]. Also, the GI50 in [7], in test [8], in test [9], in test [10], in [11] and in test [12] was > 100 µM (inactive) in each case. The GI50 in test [13], in test [14], in [15], in test [16], in [17] and in test [18] was > 100 µM (inactive) throughout. Also, the GI50 in [19] is > 100 µM (inactive).
As to `CSCCCNC(=O)c1csc([C@@H](CSC)NC(=O)CCNC(=O)[C@@H](NC(=O)OCC(Br)(Br)Br)C(C)O)n1` (stereo partly drawn), the GI50 in test [1] is > 100 µM (inactive); in [2] it was > 100 µM (inactive); in test [3], > 100 µM (inactive); in [4], > 100 µM (inactive); in [5], over 100 µM; in test [6], > 100 µM (inactive). Moreover, the GI50 in [7], in test [8], in test [9], in test [10], in test [11] and in [12] was > 100 µM (inactive) in each case. Also, the GI50 in test [13], in [14], in [15], in test [16], in test [17] and in test [18] was > 100 µM (inactive) throughout. Also, the GI50 in test [19] is > 100 µM (inactive).
On to `CCCCCCCCCCCCCCCCCCOP1(=O)OCCO1`, for which the GI50 in [1] was > 100 µM (inactive); in test [2] it was > 100 µM (inactive); in [3], 54 µM (inactive); in test [4], > 100 µM (inactive); in [5], 39.9 µM; in test [6], > 100 µM (inactive). Besides, the GI50 in [7] was 44.5 µM (inactive); in test [8], > 100 µM (inactive); in test [9], 40.7 µM (inactive); in test [10], > 100 µM (inactive); in test [11], > 100 µM (inactive); in test [12], > 100 µM (inactive). In addition, the GI50 in [13] is 74 µM (inactive); in test [14], 28.5 µM (inactive); in test [15] it was > 100 µM (inactive); in test [16], > 100 µM (inactive); in test [17] it was 44.8 µM (inactive); in [18], 30.4 µM (inactive). For the same molecule, the GI50 in test [19] was > 100 µM (inactive).
Turning to `Cc1ccc(N2C=Nn3c(nc4sc5c(c4c3=O)CCCC5)C2)cc1`, the GI50 in [1] was 54.5 µM (inactive); in test [2], 46.5 µM (inactive); in test [3] it was 45.2 µM (inactive); in test [4] it was 67.8 µM (inactive); in test [5], 48.2 µM; in test [6], 38.5 µM (inactive). Further, the GI50 is 43.6 µM (inactive) in test [7]; 70.5 µM (inactive) in test [8]; > 100 µM (inactive) in test [9]; 55 µM (inactive) in test [10]; 41.7 µM (inactive) in [11]; 70.3 µM (inactive) in [12]. For the same molecule, the GI50 in [13] was 62.5 µM (inactive); in test [14], 44.8 µM (inactive); in test [15], > 100 µM (inactive); in [16], > 100 µM (inactive); in test [17], 78.2 µM (inactive); in [18] it was 86.1 µM (inactive). In addition, the GI50 in [19] was 54.8 µM (inactive).
Regarding `c1ccc(-c2nnn(CCN3CCCCC3)n2)cc1`, the GI50 was > 100 µM (inactive) in [1]; > 100 µM (inactive) in test [2]; > 100 µM (inactive) in test [3]; > 100 µM (inactive) in test [4]; over 100 µM in test [5]; > 100 µM (inactive) in [6]. The GI50 in [7], in test [8], in [10], in test [11], in test [12] and in [13] was > 100 µM (inactive) each time. For the same molecule, the GI50 in test [14], in test [15], in test [16], in [17], in test [18] and in test [19] was > 100 µM (inactive) each time.
As for `O=C1Nc2ccccc2C1(O)Cc1ccccn1` (stereo not drawn), the GI50 was > 100 µM (inactive) in [1]; > 100 µM (inactive) in [2]; > 100 µM (inactive) in [3]; > 100 µM (inactive) in test [4]; over 100 µM in test [5]; > 100 µM (inactive) in test [6]. Further, the GI50 in test [7], in [8], in test [10], in test [11], in test [12] and in [13] was > 100 µM (inactive) each time. Also, the GI50 in test [14], in test [15], in [16], in test [17], in test [18] and in test [19] was > 100 µM (inactive) in each case.
For `O=C1Oc2ccccc2C(=O)/C1=C\Nc1nc(-c2ccccc2)cs1`, the GI50 is 27.7 µM (inactive) in test [1]; 11.2 µM (inactive) in test [2]; 1.35 µM (inactive) in test [3]; 2.6 µM (inactive) in [4]; 7.66 µM (inactive) in test [6]; 18.9 µM (inactive) in [7]. In addition, the GI50 in [8] is 4.85 µM (inactive); in test [9], 2.28 µM (inactive); in [10], 3.24 µM (inactive); in test [11], 16.7 µM (inactive); in test [12], 10.6 µM (inactive); in [13], 19 µM (inactive). Besides, the GI50 in [14] was 25.9 µM (inactive); in test [15] it was 14.3 µM (inactive); in test [16], 33.4 µM (inactive); in test [17], 19.9 µM (inactive); in [18] it was 2.21 µM (inactive); in [19], 10.5 µM (inactive).
As to `CN(CCNC(=O)c1cn(C)c2c1ccc1ccccc12)CCNC(=O)c1cn(C)c2c1ccc1ccccc12`, the GI50 in test [1] was 10.6 µM (inactive); in test [2], 3.36 µM (inactive); in test [3], 2.44 µM (inactive); in [5] it was 1.26 µM; in test [6], 0.365 µM (active); in test [7], 1.47 µM (inactive). Besides, the GI50 is 2.22 µM (inactive) in [8]; 2.55 µM (inactive) in test [9]; 5.55 µM (inactive) in test [10]; 3.14 µM (inactive) in test [11]; 7.82 µM (inactive) in [12]; 1.69 µM (inactive) in [13]. For the same molecule, the GI50 in test [14] was 3.05 µM (inactive); in test [15], 2.2 µM (inactive); in test [16] it was 8.04 µM (inactive); in test [17], 3.57 µM (inactive); in test [18], 1.92 µM (inactive); in test [19], 2.12 µM (inactive).
